Results as given in PMC6434083, “Identification and characterization of two types of amino acid-regulated acetyltransferases in actinobacteria” (Bioscience Reports, 2017).
Each block holds one molecule with its values, some of them ahead of it.

Columns and labels:
[1] = biological target: T1, SvePatA (Streptomyces venezuelae, UniProt F2RA54); experiment: coupled NADH assay, initial rate; CD shift also seen with […] Asn; type: biochemical; details: allosteric activator; co-substrates Ac-CoA and SveAcs
T1 construct: gene SVEN_0867; gene amplified from genomic DNA, pET-28a, E. coli BL21-DE3, purified; ACT-GNAT domains
T1 sequence (F2RA54 1-488): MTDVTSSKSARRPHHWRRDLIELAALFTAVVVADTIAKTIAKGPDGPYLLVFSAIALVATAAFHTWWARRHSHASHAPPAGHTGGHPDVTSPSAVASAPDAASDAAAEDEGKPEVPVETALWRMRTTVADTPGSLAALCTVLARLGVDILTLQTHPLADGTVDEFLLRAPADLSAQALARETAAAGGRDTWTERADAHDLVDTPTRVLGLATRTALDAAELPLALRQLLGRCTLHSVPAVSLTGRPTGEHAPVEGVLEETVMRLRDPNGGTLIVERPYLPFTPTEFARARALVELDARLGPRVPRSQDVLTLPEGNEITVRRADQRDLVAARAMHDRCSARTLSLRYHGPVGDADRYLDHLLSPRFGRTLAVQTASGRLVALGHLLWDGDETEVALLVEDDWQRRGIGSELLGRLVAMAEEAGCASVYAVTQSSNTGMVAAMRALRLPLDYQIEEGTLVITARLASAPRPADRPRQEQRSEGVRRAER

[2] = biological target: T2, SvePatA (Streptomyces venezuelae, UniProt F2RA54, K112A); experiment: acetyltransferase activity with Asn; type: biochemical; details: allosteric; co-substrates Ac-CoA and SveAcs
T2 construct: gene SVEN_0867; gene amplified from genomic DNA, pET-28a, E. coli BL21-DE3, purified; ACT-GNAT domains

[3] = biological target: T3, AmiPatA (Actinosynnema mirum, UniProt C6WC99); experiment: coupled NADH assay, initial rate; CD shift also seen; type: biochemical; details: allosteric activator, ACT domain; co-substrates Ac-CoA and AmiAcs
T3 construct: gene Amir_5672; gene amplified from genomic DNA, pET-28a, E. coli BL21-DE3, purified; ACT-GNAT domains
T3 sequence (C6WC99 1-372): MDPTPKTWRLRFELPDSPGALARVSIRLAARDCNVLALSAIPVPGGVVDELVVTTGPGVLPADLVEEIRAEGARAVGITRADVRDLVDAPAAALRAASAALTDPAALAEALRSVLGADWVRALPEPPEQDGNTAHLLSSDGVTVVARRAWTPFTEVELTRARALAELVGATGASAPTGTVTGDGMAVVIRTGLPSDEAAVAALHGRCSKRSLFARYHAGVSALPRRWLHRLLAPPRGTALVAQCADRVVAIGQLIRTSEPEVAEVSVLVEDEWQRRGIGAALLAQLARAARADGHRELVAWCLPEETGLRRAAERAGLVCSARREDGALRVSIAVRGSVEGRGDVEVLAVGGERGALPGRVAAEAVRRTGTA

[4] = substrate: CC(=O)SCCNC(=O)CCNC(=O)[C@H](O)C(C)(C)COP(=O)(O)OP(=O)(O)OC[C@H]1O[C@@H](n2cnc3c(N)ncnc32)[C@H](O)[C@@H]1OP(=O)(O)O; experiment: purified protein; type: biochemical, Actinosynnema mirum; details: co-substrate AmiAcs; no Cys

T2 sequence (F2RA54 entry or part of it K112A): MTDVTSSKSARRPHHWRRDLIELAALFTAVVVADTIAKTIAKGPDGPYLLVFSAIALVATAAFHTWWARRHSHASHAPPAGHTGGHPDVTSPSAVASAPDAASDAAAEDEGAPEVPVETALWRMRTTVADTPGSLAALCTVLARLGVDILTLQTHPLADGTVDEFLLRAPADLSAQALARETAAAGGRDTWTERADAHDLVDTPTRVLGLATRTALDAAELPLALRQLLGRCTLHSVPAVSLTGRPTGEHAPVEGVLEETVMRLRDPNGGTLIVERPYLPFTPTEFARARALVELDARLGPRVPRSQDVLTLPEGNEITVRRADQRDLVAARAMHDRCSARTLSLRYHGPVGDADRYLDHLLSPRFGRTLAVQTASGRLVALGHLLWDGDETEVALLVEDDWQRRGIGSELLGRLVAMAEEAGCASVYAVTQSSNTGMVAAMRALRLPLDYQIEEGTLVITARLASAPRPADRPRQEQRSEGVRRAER

% of initial rate without Asn (2.23 to 3.92 nmol NADH per min/ml) [1]: 176%
Molecule: NC(=O)C[C@H](N)C(=O)O [Asn]
activation still observed [2]: Allosteric effect of Asn on SvePatA activity was still observed in two mutants K112A

% of initial rate without Cys (3.8 to 6.8 μM/min) [3]: 179%
Molecule: N[C@@H](CS)C(=O)O [Cys]

B1: AmiPatA (Actinosynnema mirum DSM 43827) (protein)
chain: MDPTPKTWRLRFELPDSPGALARVSIRLAARDCNVLALSAIPVPGGVVDELVVTTGPGVLPADLVEEIRAEGARAVGITRADVRDLVDAPAAALRAASAALTDPAALAEALRSVLGADWVRALPEPPEQDGNTAHLLSSDGVTVVARRAWTPFTEVELTRARALAELVGATGASAPTGTVTGDGMAVVIRTGLPSDEAAVAALHGRCSKRSLFARYHAGVSALPRRWLHRLLAPPRGTALVAQCADRVVAIGQLIRTSEPEVAEVSVLVEDEWQRRGIGAALLAQLARAARADGHRELVAWCLPEETGLRRAAERAGLVCSARREDGALRVSIAVRGSVEGRGDVEVLAVGGERGALPGRVAAEAVRRTGTA
notes: gene amplified from genomic DNA, pET-28a, E. coli BL21-DE3, purified; ACT-GNAT domains
Km [4]: 5.5 ± 1.1 µM | kcat [4]: 0.19 ± 0.008 s⁻¹ | kcat/Km [4]: 36000 ± 8000 M⁻¹ s⁻¹
